Data taken from PubChem BioAssay AID1963446 (Molecular Pharmacology Branch, DTP, NCI, 2024).
Several values for one entry are separate records, joined by “and”; a condition that tells them apart may be missing. Equal entries are not always repeated.

System: 993429-296-R-J1-PDC complex spheroid growth, percent test/control
Assay: Anticancer human tumor 993429-296-R-J1-PDC patient-derived uterine sarcoma cell line growth inhibition [Asc]
Conditions: for viability, T/C: stronger effect = lower value
Method in brief: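 Concentration series start at each agent's clinical Cmax, or at 10 microM when none is established, and drop in half-log steps; agents are applied alone or together to complex spheroids built with HUVEC and hMSC.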

[1] = curve of first compound, second compound 0.01 µM
[2] = curve of first compound, second compound 0.0316 µM
[3] = curve of first compound, second compound 0.1 µM
[4] = curve of first compound, second compound 0.316 µM
[5] = curve of first compound, second compound 1 µM
[6] = second compound 0.01 µM, first compound 0.0316 µM
[7] = second compound 0.01 µM, first compound 0.1 µM
[8] = second compound 0.0316 µM, first compound 0.0316 µM
[9] = second compound 0.0316 µM, first compound 0.1 µM
[10] = second compound 0.1 µM, first compound 0.0316 µM
[11] = second compound 0.1 µM, first compound 0.1 µM
[12] = second compound 0.316 µM, first compound 0.0316 µM
[13] = second compound 0.316 µM, first compound 0.1 µM
[14] = second compound 1 µM, first compound 0.0316 µM
[15] = second compound 1 µM, first compound 0.1 µM
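Also: spheroids exposed to compounds for seven days.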

SMILES: C=C(F)C(=O)N1CCN(c2nc(OCC3CCCN3C)nc3c2CCN(c2cccc4cccc(Cl)c24)C3)CC1CC#N (stereo not drawn) + CNC(C)C(=O)NC1CN(S(=O)(=O)c2cccc(S(=O)(=O)N3CCC4CCC(C(=O)NC(c5ccccc5)c5ccccc5)N4C(=O)C(NC(=O)C(C)NC)C3)c2)CCC2CCC(C(=O)NC(c3ccccc3)c3ccccc3)N2C1=O
- IC50 [1]: 1010 nM
- IC50 [2]: 1040 nM
- IC50 [3]: 617 nM
- IC50 [4]: < 31.6 nM
- IC50 [5]: 55.9 nM
- viability, T/C [6]: 54.2%
- viability, T/C [7]: 59.8%
- viability, T/C (second compound 0.01 µM, first compound 0.316 µM): 57.6%
- viability, T/C (second compound 0.01 µM, first compound 1 µM): 50.4%
- viability, T/C (second compound 0.01 µM, first compound 3.16 µM): 7.74%
- viability, T/C (second compound 0.01 µM, first compound 10 µM): 0.13%
- viability, T/C [8]: 59.9%
- viability, T/C [9]: 58.6%
- viability, T/C (second compound 0.0316 µM, first compound 0.316 µM): 55.4%
- viability, T/C (second compound 0.0316 µM, first compound 1 µM): 51.7%
- viability, T/C (second compound 0.0316 µM, first compound 3.16 µM): 5.7%
- viability, T/C (second compound 0.0316 µM, first compound 10 µM): 0.12%
- viability, T/C [10]: 51.4%
- viability, T/C [11]: 54.7%
- viability, T/C (second compound 0.1 µM, first compound 0.316 µM): 54.8%
- viability, T/C (second compound 0.1 µM, first compound 1 µM): 47.4%
- viability, T/C (second compound 0.1 µM, first compound 3.16 µM): 7.4%
- viability, T/C (second compound 0.1 µM, first compound 10 µM): 0.12%
- viability, T/C [12]: 45.9%
- viability, T/C [13]: 52.4%
- viability, T/C (second compound 0.316 µM, first compound 0.316 µM): 40.3%
- viability, T/C (second compound 0.316 µM, first compound 1 µM): 45.4%
- viability, T/C (second compound 0.316 µM, first compound 3.16 µM): 7.07%
- viability, T/C (second compound 0.316 µM, first compound 10 µM): 0.12%
- viability, T/C [14]: 57.8%
- viability, T/C [15]: 37.8%
- viability, T/C (second compound 1 µM, first compound 0.316 µM): 37.6%
- viability, T/C (second compound 1 µM, first compound 1 µM): 34.2%
- viability, T/C (second compound 1 µM, first compound 3.16 µM): 3.13%
- viability, T/C (second compound 1 µM, first compound 10 µM): 0.2%

SMILES: CCN1C(C(=O)NC23CCC(C(=O)O)(CC2)CC3)C(c2cccc(Cl)c2F)C2(C(=O)Nc3cc(Cl)ccc32)C12CCCCC2 (stereo not drawn)
- viability, T/C (compound 0.00949 µM): 92.7% and 92.5%
- IC50 (compound alone, run of 09/27/2022): > 3000 nM
- IC50 (curve of compound): > 3000 nM

SMILES: Cn1ncnc1[C@H]1c2n[nH]c(=O)c3cc(F)cc(c23)N[C@@H]1c1ccc(F)cc1 + CNC(C)C(=O)NC1CN(S(=O)(=O)c2cccc(S(=O)(=O)N3CCC4CCC(C(=O)NC(c5ccccc5)c5ccccc5)N4C(=O)C(NC(=O)C(C)NC)C3)c2)CCC2CCC(C(=O)NC(c3ccccc3)c3ccccc3)N2C1=O
- IC50 [1]: 4.14 nM
- IC50 [2]: 7.99 nM
- IC50 [3]: 3.94 nM
- IC50 [4]: 5.81 nM
- IC50 [5]: < 0.316 nM
- viability, T/C (second compound 0.01 µM, first compound 0.000316 µM): 75.9%
- viability, T/C (second compound 0.01 µM, first compound 0.001 µM): 54.9%
- viability, T/C (second compound 0.01 µM, first compound 0.00316 µM): 52.7%
- viability, T/C (second compound 0.01 µM, first compound 0.01 µM): 47%
- viability, T/C [6]: 32.6%
- viability, T/C [7]: 21.3%
- viability, T/C (second compound 0.0316 µM, first compound 0.000316 µM): 60.4%
- viability, T/C (second compound 0.0316 µM, first compound 0.001 µM): 69.1%
- viability, T/C (second compound 0.0316 µM, first compound 0.00316 µM): 54.1%
- viability, T/C (second compound 0.0316 µM, first compound 0.01 µM): 48.9%
- viability, T/C [8]: 35.9%
- viability, T/C [9]: 26.5%
- viability, T/C (second compound 0.1 µM, first compound 0.000316 µM): 52%
- viability, T/C (second compound 0.1 µM, first compound 0.001 µM): 52.7%
- viability, T/C (second compound 0.1 µM, first compound 0.00316 µM): 51.2%
- viability, T/C (second compound 0.1 µM, first compound 0.01 µM): 45.3%
- viability, T/C [10]: 32.5%
- viability, T/C [11]: 23.2%
- viability, T/C (second compound 0.316 µM, first compound 0.000316 µM): 56.5%
- viability, T/C (second compound 0.316 µM, first compound 0.001 µM): 60.7%
- viability, T/C (second compound 0.316 µM, first compound 0.00316 µM): 54.8%
- viability, T/C (second compound 0.316 µM, first compound 0.01 µM): 44.4%
- viability, T/C [12]: 17.5%
- viability, T/C [13]: 13.7%
- viability, T/C (second compound 1 µM, first compound 0.000316 µM): 50.6%
- viability, T/C (second compound 1 µM, first compound 0.001 µM): 45.7%
- viability, T/C (second compound 1 µM, first compound 0.00316 µM): 46.9%
- viability, T/C (second compound 1 µM, first compound 0.01 µM): 39.4%
- viability, T/C [14]: 21.6%
- viability, T/C [15]: 10.9%
